ChEMBL document CHEMBL1201862, “PubChem BioAssay data set” (2004)
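The compound was tested at five concentrations on cells cultured in 96-well plates, with a 48-hour exposure period. At the GI50, growth is halved.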 Activity calls are given as the source filed them. Cut-off read from the data, not from the text of the source: active = GI50 up to about 1.1 µM and inactive = higher.

Columns and labels:
Assay in all cases: growth of human tumour cells (NCI), 48 h
[1] = test system: 786-0
[2] = test system: CCRF-CEM
[3] = test system: DU-145
[4] = test system: HCT-15
[5] = test system: HOP-62
[6] = test system: HT-29
[7] = test system: KM12
[8] = test system: MOLT-4
[9] = test system: NCI/ADR-RES
[10] = test system: OVCAR-5
[11] = test system: RPMI-8226
[12] = test system: RXF 393
[13] = test system: SF-295
[14] = test system: SF-539
[15] = test system: SK-MEL-2
[16] = test system: SK-OV-3
[17] = test system: U-251
[18] = test system: SN12C
[19] = test system: BT-549

| SMILES | GI50 [1] | GI50 [2] | GI50 [3] | GI50 [4] | GI50 [5] | GI50 [6] | GI50 [7] | GI50 [8] | GI50 [9] | GI50 [10] | GI50 [11] | GI50 [12] | GI50 [13] | GI50 [14] | GI50 [15] | GI50 [16] | GI50 [17] | GI50 [18] | GI50 [19] |
| --- | --- | --- | --- | --- | --- | --- | --- | --- | --- | --- | --- | --- | --- | --- | --- | --- | --- | --- | --- |
| CC1=NN(c2nc(N)nc(/C(C#N)=C\c3csc([N+](=O)[O-])c3)n2)C(C)(C)C1 | 17.6 µM (inactive) | 2.23 µM (inactive) | 33.4 µM (inactive) | 81.3 µM | 26.6 µM (inactive) | 37.3 µM (inactive) | 57.9 µM (inactive) | > 100 µM (inactive) | 27 µM (inactive) | 34.7 µM (inactive) | 35.6 µM (inactive) | 20.6 µM (inactive) | 45.5 µM (inactive) | 27.2 µM (inactive) | 28.9 µM (inactive) | 42.2 µM (inactive) | 19.3 µM (inactive) |  |  |
| Cc1nc2cc(N)c(F)cc2[nH]1 | > 100 µM (inactive) | > 100 µM (inactive) |  |  | > 100 µM (inactive) | > 100 µM (inactive) | > 100 µM (inactive) | > 100 µM (inactive) |  | > 100 µM (inactive) |  | > 100 µM (inactive) | > 100 µM (inactive) | > 100 µM (inactive) | > 100 µM (inactive) | > 100 µM (inactive) | > 100 µM (inactive) | > 100 µM (inactive) |  |
| c1csc(-c2csc(-c3cccs3)c2)c1 | 52.1 µM (inactive) | 49.2 µM (inactive) | > 100 µM (inactive) | 27.7 µM | 63.1 µM (inactive) | > 100 µM (inactive) | 28.9 µM (inactive) | 28.6 µM (inactive) | > 100 µM (inactive) | > 100 µM (inactive) | 24.3 µM (inactive) | 6.1 µM (inactive) | 35.9 µM (inactive) | > 100 µM (inactive) | 20.2 µM (inactive) | 95.9 µM (inactive) | 77.4 µM (inactive) | 34.2 µM (inactive) |  |
| CN(/N=C/C=N/N(C)C1=NCCN1)C1=NCCN1 | > 100 µM (inactive) | > 100 µM (inactive) | > 100 µM (inactive) | > 100 µM | > 100 µM (inactive) | > 100 µM (inactive) | > 100 µM (inactive) | > 100 µM (inactive) | > 100 µM (inactive) | > 100 µM (inactive) |  |  | > 100 µM (inactive) | > 100 µM (inactive) |  | > 100 µM (inactive) | > 100 µM (inactive) | > 100 µM (inactive) | > 100 µM (inactive) |
| C1CSCCSCCCSC2CCCCC2SC1 (stereo not given) | > 100 µM (inactive) | > 100 µM (inactive) | > 100 µM (inactive) | > 100 µM | > 100 µM (inactive) | 25.4 µM (inactive) | > 100 µM (inactive) | 26 µM (inactive) | 83.9 µM (inactive) | > 100 µM (inactive) | 45.4 µM (inactive) |  | > 100 µM (inactive) | > 100 µM (inactive) |  | > 100 µM (inactive) | > 100 µM (inactive) | > 100 µM (inactive) | > 100 µM (inactive) |
| CC1CC(C)C(C#N)N(C)c2ccccc21 (stereo not given) | > 100 µM (inactive) | 51.8 µM (inactive) | > 100 µM (inactive) | > 100 µM | > 100 µM (inactive) | 78.3 µM (inactive) | > 100 µM (inactive) | 66.7 µM (inactive) | > 100 µM (inactive) | > 100 µM (inactive) | 37.2 µM (inactive) | 6.12 µM (inactive) | > 100 µM (inactive) | > 100 µM (inactive) | > 100 µM (inactive) | > 100 µM (inactive) |  | > 100 µM (inactive) |  |
| COc1ccc(N2C(=O)C3c4[nH]c5ccc(C)cc5c4C4CCC(C(C)C)CC4C3C2=O)cc1 (stereo not given) | > 100 µM (inactive) | 0.995 µM (active) | > 100 µM (inactive) | > 100 µM | 45.4 µM (inactive) | > 100 µM (inactive) | > 100 µM (inactive) | > 100 µM (inactive) | > 100 µM (inactive) | > 100 µM (inactive) | > 100 µM (inactive) |  | > 100 µM (inactive) |  | > 100 µM (inactive) | > 100 µM (inactive) | 47.6 µM (inactive) | > 100 µM (inactive) | > 100 µM (inactive) |
| O=C1NC2=C(CCCCC/C2=N\O)C12CCCCCC2 | > 100 µM (inactive) | > 100 µM (inactive) |  | > 100 µM | > 100 µM (inactive) | > 100 µM (inactive) | > 100 µM (inactive) | > 100 µM (inactive) |  | > 100 µM (inactive) | > 100 µM (inactive) | > 100 µM (inactive) | > 100 µM (inactive) | > 100 µM (inactive) | > 100 µM (inactive) | > 100 µM (inactive) | > 100 µM (inactive) | > 100 µM (inactive) |  |
| Oc1ccc(Oc2cc3c(cc2Oc2ccc(O)cc2)-c2nc-3nc3[nH]c(nc4nc(nc5[nH]c(n2)c2cc(Oc6ccc(O)cc6)c(Oc6ccc(O)cc6)cc52)-c2cc(Oc5ccc(O)cc5)c(Oc5ccc(O)cc5)cc2-4)c2cc(Oc4ccc(O)cc4)c(Oc4ccc(O)cc4)cc32)cc1 | > 100 µM (inactive) | > 100 µM (inactive) |  | > 100 µM | > 100 µM (inactive) | > 100 µM (inactive) | > 100 µM (inactive) | > 100 µM (inactive) | > 100 µM (inactive) | 85.5 µM (inactive) |  |  | 37.8 µM (inactive) | > 100 µM (inactive) |  | > 100 µM (inactive) | > 100 µM (inactive) | > 100 µM (inactive) | > 100 µM (inactive) |
| O=C1CC2CC(CC3(CO3)C2)C1F (stereo not given) | > 100 µM (inactive) | > 100 µM (inactive) | > 100 µM (inactive) | > 100 µM | > 100 µM (inactive) | > 100 µM (inactive) | > 100 µM (inactive) | > 100 µM (inactive) | > 100 µM (inactive) | > 100 µM (inactive) | > 100 µM (inactive) | > 100 µM (inactive) | > 100 µM (inactive) |  | > 100 µM (inactive) | > 100 µM (inactive) | > 100 µM (inactive) | > 100 µM (inactive) |  |
| O=c1[nH]c(=O)n(C2CC(O)C(COP(=O)(O)OC3CC(n4cc(F)c(=O)[nH]c4=O)OC3COP(=O)(O)OC3CC(n4cc(F)c(=O)[nH]c4=O)OC3COP(=O)(O)OC3CC(n4cc(F)c(=O)[nH]c4=O)OC3COP(=O)(O)OC3CC(n4cc(F)c(=O)[nH]c4=O)OC3COP(=O)(O)OC3CC(n4cc(F)c(=O)[nH]c4=O)OC3COP(=O)(O)OC3CC(n4cc(F)c(=O)[nH]c4=O)OC3COP(=O)(O)OC3CC(n4cc(F)c(=O)[nH]c4=O)OC3COP(=O)(O)OC3CC(n4cc(F)c(=O)[nH]c4=O)OC3COP(=O)(O)OC3CC(n4cc(F)c(=O)[nH]c4=O)OC3CO)O2)cc1F (stereo not given) | < 0.005 µM (active) |  | < 0.005 µM (active) | 0.309 µM | < 0.005 µM (active) | 0.481 µM (active) | 3.59 µM (inactive) | 0.0052 µM (active) | < 0.005 µM (active) |  | 0.232 µM (active) | 0.217 µM (active) | < 0.005 µM (active) | < 0.005 µM (active) | 3.07 µM (inactive) | 0.226 µM (active) | 0.115 µM (active) | 0.00828 µM (active) |  |
| CCCCCCCCCc1cc(=O)c2c(O)cc(O)cc2o1 | 21.6 µM (inactive) | 24.3 µM (inactive) | 20.2 µM (inactive) | 18.8 µM | 14.8 µM (inactive) | 19.1 µM (inactive) | 6.67 µM (inactive) | 4.91 µM (inactive) | 17.6 µM (inactive) | 16.6 µM (inactive) | 5.86 µM (inactive) | 15.1 µM (inactive) | 18.7 µM (inactive) | 17.3 µM (inactive) | 18.9 µM (inactive) | 17.1 µM (inactive) | 28.6 µM (inactive) | 22.2 µM (inactive) |  |
| OCCN(CCO)c1ccc2c(C(F)(F)F)cc(C(F)(F)F)nc2n1 | > 100 µM (inactive) | > 100 µM (inactive) | > 100 µM (inactive) | > 86.5 µM | > 100 µM (inactive) | > 100 µM (inactive) | > 100 µM (inactive) | > 100 µM (inactive) | > 80.4 µM (inactive) | > 100 µM (inactive) | > 100 µM (inactive) | > 100 µM (inactive) | > 100 µM (inactive) | > 100 µM (inactive) | > 100 µM (inactive) | > 100 µM (inactive) | > 100 µM (inactive) | > 100 µM (inactive) |  |
| COc1cccc(-c2cc(O)c3cc(NC(C)=O)ccc3n2)c1 | 28.9 µM (inactive) | 5.6 µM (inactive) |  | 32 µM | 32.4 µM (inactive) | 22 µM (inactive) | 23.5 µM (inactive) | 5.27 µM (inactive) | 62.8 µM (inactive) | 59.4 µM (inactive) | 42.9 µM (inactive) |  |  | 14.2 µM (inactive) |  | > 100 µM (inactive) | 9.57 µM (inactive) | 78 µM (inactive) | > 100 µM (inactive) |
| COc1cc(C(=O)O[C@H]2CCC3CCC2N3C)cc(OC)c1OC (stereo not given in full) | > 100 µM (inactive) | > 100 µM (inactive) | > 100 µM (inactive) | > 100 µM | > 100 µM (inactive) | > 100 µM (inactive) | > 100 µM (inactive) | > 100 µM (inactive) | > 100 µM (inactive) | > 100 µM (inactive) | > 100 µM (inactive) | > 100 µM (inactive) | > 100 µM (inactive) | > 100 µM (inactive) |  | > 100 µM (inactive) | > 100 µM (inactive) | > 100 µM (inactive) |  |
| O=C1C(c2ccccc2)=[N+]([O-])c2ccccc21 | 17.7 µM (inactive) | 4.83 µM (inactive) | 15.7 µM (inactive) | 19.7 µM | 18.7 µM (inactive) | 20.2 µM (inactive) | 19.8 µM (inactive) | 21.6 µM (inactive) | 17.7 µM (inactive) | 22.4 µM (inactive) | 14.9 µM (inactive) |  | 17.4 µM (inactive) | 18.8 µM (inactive) | 14.7 µM (inactive) | 17.6 µM (inactive) | 10.5 µM (inactive) | 17.3 µM (inactive) |  |
